Measured values reported in the supplement of paper PMC11208160.

Assay: recombinant UMI read abundance after kanamycin selection (control-corrected) (log10(CPM+1)); higher = more efficient recombination; extreme values may be limits of the assay; sequences stand for … in AGTGCAGAGAAAATCGGCCAGTTTTCTCTGCCTGCAGTCCGCATGCCGTGGGACCCCTTGGGTTCTAACCTGTTGCCTAGATTTATGCAGCGGACTGCCTTTCTCCCAAAGTGATAAACCGG…AGGTTGGTTTCACT; site = the 11-nt donor
Method in brief: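 Counts of recombinant UMIs were reported as log10(CPM+1). Before that, they were converted to CPM, averaged over replicates and scaled using control-derived factors. They came from PCR across the donor–target junction after Escherichia coli carrying the pair library and target plasmid was plated on IPTG (0.07 mM) plus kanamycin, or unselected, in two replicates each.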
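Further: IS621 bridge recombinase in Escherichia coli cells against a fixed T5 target plasmid.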

| Sequence | recombinant UMI read abundance (log10) |
| --- | --- |
| GCCACACCATGGACCGGTTTTCCCGGTAATCCGTATTTGTA (site GCCACTCCTTA) | 0.0198 |
| GCCACGGCATGGACCGGTTTTCCCGGTAATCCGTATTTGTA (site GCCACGACTTA) | 1.24 |
| GCCACGGCATGGACCGGTTTTCCCGGTAATCCGTATTTGTA (site GCCACGCCTTA) | 0.106 |
| GCCACGGCATGGACCGGTTTTCCCGGTAATCCGTATTTGTA (site GCCACGGCTTA) | 1.62 |
| GCCACGGCATGGACCGGTTTTCCCGGTAATCCGTATTTGTA (site GCCACGTCTTA) | 0.163 |
| GCCAGCGCATGGACCGGTTTTCCCGGTAATCCGTATTTGCC (site GCCAGCGCTGG) | 1.98 |
| GCCCCGTCATGGACCGGTTTTCCCGGTAATCCGTATTTGAT (site GCCCCGTCTAT) | 2 |
| GCCCCTTCATGGACCGGTTTTCCCGGTAATCCGTATTTGGG (site GCCCCTTCTCC) | 0.712 |
| GCCGACACATGGACCGGTTTTCCCGGTAATCCGTATTTGTA (site GCCGACACTTA) | 1.4 |
| GCCGATTCATGGACCGGTTTTCCCGGTAATCCGTATTTGCT (site GCCGATTCTAG) | 1.88 |
| GCCGCCCCATGGACCGGTTTTCCCGGTAATCCGTATTTGGC (site GCCGCCCCTGC) | 0 |
| GCCGCTTCATGGACCGGTTTTCCCGGTAATCCGTATTTGGA (site GCCGCTTCTTC) | 1.23 |
| GCCGGGCCATGGACCGGTTTTCCCGGTAATCCGTATTTGCA (site GCCGGGCCTTG) | 0 |
| GCCGTACCATGGACCGGTTTTCCCGGTAATCCGTATTTGTT (site GCCGTACCTAA) | 0.0103 |
| GCCTAGCCATGGACCGGTTTTCCCGGTAATCCGTATTTGTG (site GCCTAGCCTCA) | 0.155 |
| GCCTATACATGGACCGGTTTTCCCGGTAATCCGTATTTGAC (site GCCTATACTGT) | 2.21 |
| GCCTGCCCATGGACCGGTTTTCCCGGTAATCCGTATTTGAT (site GCATGCCCTAT) | 0.0137 |
| GCCTGCCCATGGACCGGTTTTCCCGGTAATCCGTATTTGAT (site GCCTGCCCTAT) | 0.201 |
| GCCTGCCCATGGACCGGTTTTCCCGGTAATCCGTATTTGAT (site GCGTGCCCTAT) | 0.0203 |
| GCCTGCCCATGGACCGGTTTTCCCGGTAATCCGTATTTGAT (site GCTTGCCCTAT) | 0.00989 |
| GCGAAAACATGGACCGGTTTTCCCGGTAATCCGTATTTGAT (site GCGAAAACTAA) | 0 |
| GCGAAAACATGGACCGGTTTTCCCGGTAATCCGTATTTGAT (site GCGAAAACTAC) | 0.0215 |
| GCGAAAACATGGACCGGTTTTCCCGGTAATCCGTATTTGAT (site GCGAAAACTAG) | 0 |
| GCGAAAACATGGACCGGTTTTCCCGGTAATCCGTATTTGAT (site GCGAAAACTAT) | 1.66 |
| GCGAAAACATGGACCGGTTTTCCCGGTAATCCGTATTTGTT (site GCGAAAACTAA) | 2.31 |

| Sequence | recombinant UMI read abundance (log10) |
| --- | --- |
| GCGAAAACATGGACCGGTTTTCCCGGTAATCCGTATTTGTT (site GCGAAAACTAC) | 0 |
| GCGAAAACATGGACCGGTTTTCCCGGTAATCCGTATTTGTT (site GCGAAAACTAG) | 1.18 |
| GCGAAAACATGGACCGGTTTTCCCGGTAATCCGTATTTGTT (site GCGAAAACTAT) | 0 |
| GCGAAACCATGGACCGGTTTTCCCGGTAATCCGTATTTGCT (site GCGAAAACTAG) | 0 |
| GCGAAACCATGGACCGGTTTTCCCGGTAATCCGTATTTGCT (site GCGAAACCTAG) | 0 |
| GCGAAACCATGGACCGGTTTTCCCGGTAATCCGTATTTGCT (site GCGAAAGCTAG) | 0 |
| GCGAAACCATGGACCGGTTTTCCCGGTAATCCGTATTTGCT (site GCGAAATCTAG) | 0 |
| GCGAAGCCATGGACCGGTTTTCCCGGTAATCCGTATTTGGT (site GCGAAGCCTAC) | 0.885 |
| GCGAAGCCATGGACCGGTTTTCCCGGTAATCCGTATTTGGT (site GCGAAGCCTCC) | 0.00425 |
| GCGAAGCCATGGACCGGTTTTCCCGGTAATCCGTATTTGGT (site GCGAAGCCTGC) | 0 |
| GCGAAGCCATGGACCGGTTTTCCCGGTAATCCGTATTTGGT (site GCGAAGCCTTC) | 0.234 |
| GCGAAGTCATGGACCGGTTTTCCCGGTAATCCGTATTTGGG (site GCGAAGACTCC) | 0.283 |
| GCGAAGTCATGGACCGGTTTTCCCGGTAATCCGTATTTGGG (site GCGAAGCCTCC) | 0.0096 |
| GCGAAGTCATGGACCGGTTTTCCCGGTAATCCGTATTTGGG (site GCGAAGGCTCC) | 0.019 |
| GCGAAGTCATGGACCGGTTTTCCCGGTAATCCGTATTTGGG (site GCGAAGTCTCC) | 1.21 |
| GCGACTACATGGACCGGTTTTCCCGGTAATCCGTATTTGGC (site GCGACTACTGC) | 1.97 |
| GCGACTGCATGGACCGGTTTTCCCGGTAATCCGTATTTGCC (site GCAACTGCTGG) | 2 |
| GCGACTGCATGGACCGGTTTTCCCGGTAATCCGTATTTGCC (site GCCACTGCTGG) | 0.516 |
| GCGACTGCATGGACCGGTTTTCCCGGTAATCCGTATTTGCC (site GCGACTGCTGG) | 1.65 |
| GCGACTGCATGGACCGGTTTTCCCGGTAATCCGTATTTGCC (site GCTACTGCTGG) | 0 |
| GCGATGCCATGGACCGGTTTTCCCGGTAATCCGTATTTGGG (site GCGAAGCCTCC) | 0.00846 |
| GCGATGCCATGGACCGGTTTTCCCGGTAATCCGTATTTGGG (site GCGACGCCTCC) | 0.0196 |
| GCGATGCCATGGACCGGTTTTCCCGGTAATCCGTATTTGGG (site GCGAGGCCTCC) | 0.0186 |
| GCGATGCCATGGACCGGTTTTCCCGGTAATCCGTATTTGGG (site GCGATGCCTCC) | 0.0291 |
| GCGCAAACATGGACCGGTTTTCCCGGTAATCCGTATTTGCT (site GCGAAAACTAG) | 0 |

| Sequence | recombinant UMI read abundance (log10) |
| --- | --- |
| GCGCAAACATGGACCGGTTTTCCCGGTAATCCGTATTTGCT (site GCGCAAACTAG) | 1.59 |
| GCGCAAACATGGACCGGTTTTCCCGGTAATCCGTATTTGCT (site GCGGAAACTAG) | 0 |
| GCGCAAACATGGACCGGTTTTCCCGGTAATCCGTATTTGCT (site GCGTAAACTAG) | 0 |
| GCGCCCACATGGACCGGTTTTCCCGGTAATCCGTATTTGTG (site GCGCCCACTCA) | 0.0198 |
| GCGCCTACATGGACCGGTTTTCCCGGTAATCCGTATTTGTT (site GCGCCTACTAA) | 0.013 |
| GCGCGAGCATGGACCGGTTTTCCCGGTAATCCGTATTTGGG (site GCGCGAGCTCC) | 0.163 |
| GCGCTCACATGGACCGGTTTTCCCGGTAATCCGTATTTGAT (site GAGCTCACTAT) | 0.12 |
| GCGCTCACATGGACCGGTTTTCCCGGTAATCCGTATTTGAT (site GCGCTCACTAT) | 2.21 |
| GCGCTCACATGGACCGGTTTTCCCGGTAATCCGTATTTGAT (site GGGCTCACTAT) | 0.00525 |
| GCGCTCACATGGACCGGTTTTCCCGGTAATCCGTATTTGAT (site GTGCTCACTAT) | 0.28 |
| GCGGAAGCATGGACCGGTTTTCCCGGTAATCCGTATTTGGT (site GCGGAAGCTAC) | 1.72 |
| GCGGATGCATGGACCGGTTTTCCCGGTAATCCGTATTTGAA (site GCGGATGCTTT) | 2.38 |
| GCGGCACCATGGACCGGTTTTCCCGGTAATCCGTATTTGCA (site GAGGCACCTTG) | 0.00511 |
| GCGGCACCATGGACCGGTTTTCCCGGTAATCCGTATTTGCA (site GCGGCACCTTG) | 0 |
| GCGGCACCATGGACCGGTTTTCCCGGTAATCCGTATTTGCA (site GGGGCACCTTG) | 0.008 |
| GCGGCACCATGGACCGGTTTTCCCGGTAATCCGTATTTGCA (site GTGGCACCTTG) | 0 |
| GCGGCTACATGGACCGGTTTTCCCGGTAATCCGTATTTGTC (site GCGGCTACTGA) | 2.67 |
| GCGGCTTCATGGACCGGTTTTCCCGGTAATCCGTATTTGTC (site GCGGCTTCTGA) | 1.81 |
| GCGGGCACATGGACCGGTTTTCCCGGTAATCCGTATTTGTG (site GCGGGCACTCA) | 0.836 |
| GCGGTGCCATGGACCGGTTTTCCCGGTAATCCGTATTTGGC (site GCGGTGCCTGC) | 0 |
| GCGGTGTCATGGACCGGTTTTCCCGGTAATCCGTATTTGAA (site GCGGTGTCTTT) | 2.41 |
| GCGTATTCATGGACCGGTTTTCCCGGTAATCCGTATTTGCC (site GCGTATTCTGG) | 2.14 |
| GCGTATTCATGGACCGGTTTTCCCGGTAATCCGTATTTGTG (site GCGTATTCTCA) | 2.49 |
| GCGTCGGCATGGACCGGTTTTCCCGGTAATCCGTATTTGGA (site GCGTCGGCTTC) | 0.519 |
| GCGTGCCCATGGACCGGTTTTCCCGGTAATCCGTATTTGAT (site GCATGCCCTAT) | 0.417 |
